One series addresses T1, human 12R-LOX enzyme (Homo sapiens, UniProt O75342).
T1 construct: Coding region of the cDNA was amplified from the basic vector pCMV6Neo-12R-LOX (OriGene, USA) and was ligated into pET28(b); His-tag (N); made in house; host or cells: E. coli BL21 Rossetta DE3
T1 sequence (O75342 1-701): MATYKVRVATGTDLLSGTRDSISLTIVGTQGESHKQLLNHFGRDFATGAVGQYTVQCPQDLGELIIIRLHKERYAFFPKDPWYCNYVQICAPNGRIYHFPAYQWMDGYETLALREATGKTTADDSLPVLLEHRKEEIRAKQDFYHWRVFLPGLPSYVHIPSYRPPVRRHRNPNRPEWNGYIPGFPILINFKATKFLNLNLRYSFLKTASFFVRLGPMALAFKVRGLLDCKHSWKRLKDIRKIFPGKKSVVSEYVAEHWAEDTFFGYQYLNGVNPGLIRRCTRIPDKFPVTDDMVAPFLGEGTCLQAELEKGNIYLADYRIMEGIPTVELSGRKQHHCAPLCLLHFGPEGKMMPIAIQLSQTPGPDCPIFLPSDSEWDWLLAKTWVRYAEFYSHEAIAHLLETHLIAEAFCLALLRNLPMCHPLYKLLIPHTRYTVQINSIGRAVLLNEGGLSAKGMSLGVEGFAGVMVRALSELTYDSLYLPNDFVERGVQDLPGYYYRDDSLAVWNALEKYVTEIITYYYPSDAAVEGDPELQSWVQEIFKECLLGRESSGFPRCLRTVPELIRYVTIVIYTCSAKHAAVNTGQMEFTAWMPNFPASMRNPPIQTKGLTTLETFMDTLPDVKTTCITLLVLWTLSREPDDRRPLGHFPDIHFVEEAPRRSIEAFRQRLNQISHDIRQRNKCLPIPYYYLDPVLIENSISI
The series is described as follows: Screening of compounds against 12R-LOX in isolated enzyme systems. To be noted: for inhibition at 100 µM: read-out: % Inhibition (at 100 μM). The class given is biochemical. An excerpt: Human 12R-LOX gene was cloned and expressed as an N-terminally His-tagged fusion protein. Coding region of the cDNA was amplified from the basic vector pCMV6Neo-12R-LOX (OriGene, USA) and was ligated into pET28(b), a prokaryotic protein expression vector. E. coli BL21 Rossetta DE3 (an engineered strain of BL21) was transformed with the pET28(b) recombinant vector containing Kanamycin and chloramphenicol resistance gene as the selection markers. Single colony selected on kanamycin and chloramphenicol was checked for the expression of the protein. For this single colony was cultured at 37° C. in LB medium containing […] kanamycin and […] chloramphenicol to reach an absorbance of 0.6 at 600 nm. The cultured bacteria were then induced to express recombinant protein by using isopropyl β-D-thiogalactopyranoside (IPTG) (1 mM final concentration) at 18° C. The culture was incubated for 8-12 h and then the culture was spun down to collect the bacterial cells. The cells were re-suspended in the required amount of phosphate buffer saline (PBS) containing protease inhibitor. The cells were then lysed by sonication to extract the protein. The cells were sonicated for 5 min. and then debris was removed by centrifugation at 13000 rpm for 30 min at 4° C. The clear supernatant was collected and was used as the source of enzyme.
Purification of the recombinant 12R-LOX protein was performed using nickel-nitrilotriacetic acid (Ni-NTA) metal-affinity chromatography as per manufacturer's protocol. Briefly, Ni-NTA slurry (500 microliters for 150 mL of culture) was added to the cleared bacterial lysate and mixed gently by shaking at 4° C. for 60 min. Then the lysate—Ni-NTA slurry was loaded into a column. The column was then washed with 10 mL of washing buffer (50 mM phosphate buffer with 300 mM sodium chloride) containing 20 mM imidazole to remove loosely bound proteins. Then tightly bound proteins were eluted from the column with elution buffer (50 mM phosphate buffer with 300 mM sodium chloride) containing 300 mM imidazole. The purified protein fractions were then analyzed further by SDS-PAGE and western blotting to confirm the presence of 12R-LOX (FIGS. 1a and 1b).
Fractions with human 12R-LOX protein were added to a total volume of 0.3 mL of phosphate buffered saline (pH 7.4) and incubated with substrate, arachidonic acid methyl ester. The mixture was vortexed and incubated for 15 min at 37° C. […] After 5 min the reaction was acidified to pH 3 with 50 μL of acetic acid and then the proteins were precipitated with the addition of 0.3 mL of ice-cold methanol. The total mixture was centrifuged (14000 rpm for 15 min) to remove the proteins and the clear supernatant was analysed on reverse phase HPLC (RP-HPLC). The solvent system used was methanol:water:acetic acid in the ratio of 85:15:0.1 with a flow rate of 1 mL/min on a C18 column. The chromatograms were followed by monitoring the absorbance for HETE products at 235 nm. Individual peak areas in each chromatogram were taken for further comparison analysis.
Baicalein, the standard 12R-LOX inhibitor, was used as a positive control for all inhibition assays performed. The compounds were evaluated for their inhibitory action against human 12R-LOX enzyme at 100 μM concentration in vitro. Further, IC50 of the compounds of the present invention were determined.

[1] abbreviates: 12R-LOX inhibitory activities in vitro.
The mark [2] stands for this setting: 12R-LOX inhibitory activities in vitro, 100 μM concentration.

Where two headings read alike, the source gives them in different places.

As for `Nc1ccc(O)cc1-c1cc(=O)c2ccccc2o1` [Compound 1, 2-(2-Amino-5-hydroxyphenyl)-4H-chromen-4-one], the melting point (in general, the temperature, or range, at which the solid turns liquid) fell in the range of 202 to 204 °C. In addition, on human 12R-LOX enzyme (setting [1]), the IC50 (usually the concentration that inhibits the measured activity by half) stood at 188 µM. Moreover, the inhibition (as a rule, the drop in the measured response relative to a control, in per cent) at 100 µM on human 12R-LOX enzyme (setting [2]) amounted to 40%. For the molecule `CS(=O)(=O)Nc1ccc(OS(C)(=O)=O)cc1-c1cc(=O)c2ccccc2o1` [Compound 2, 4-(Methylsulfonamido)-3-(4-oxo-4H-chromen-2-yl)phenylmethane Sulfonate], on human 12R-LOX enzyme (setting [2]), the inhibition at 100 µM turned out to be 56%. At human 12R-LOX enzyme (setting [1]), `Nc1cc(I)c(O)cc1-c1cc(=O)c2ccccc2o1` [Compound 3, 2-(2-Amino-5-hydroxy-4-iodophenyl)-4H-chromen-4-one] registered an IC50 of 97 µM. Further, the inhibition at 100 µM at human 12R-LOX enzyme (setting [2]) turned out to be 51%. Turning to `COc1ccc(N)c(-c2cc(=O)c3ccccc3o2)c1` [Compound 4, 2-(2-Amino-5-methoxyphenyl)-4H-chromen-4-one], the melting point was in the range of 118 to 120 °C.

As for `CCOc1ccc(N)c(-c2cc(=O)c3ccccc3o2)c1` [Compound 5, 2-(2-Amino-5-ethoxyphenyl)-4H-chromen-4-one], the melting point was 88 to 90 °C. Same read-out and setting: the result for `C#CCOc1ccc(N)c(-c2cc(=O)c3ccccc3o2)c1` [Compound 6, 2-(2-Amino-5-(prop-2-ynyloxy)phenyl)-4H-chromen-4-one] reads 153 to 155 °C. `C#CCOc1ccc(NS(=O)(=O)c2ccccc2)c(-c2cc(=O)c3ccccc3o2)c1` [Compound 7, N-(2-(4-Oxo-4H-chromen-2-yl)-4-(prop-2-ynyloxy)phenyl)benzene sulfonamide] showed a melting point of 152 to 154 °C. At human 12R-LOX enzyme, the inhibition at 100 µM stood at 21 ± 7%. Take `O=c1cc(-c2cc(O)ccc2NS(=O)(=O)c2ccccc2)oc2ccccc12` [Compound 8, N-(4-Hydroxy-2-(4-oxo-4H-chromen-2-yl)phenyl)benzene Sulfonamide]: the melting point was > 200 °C. On the same count and under the same terms, as for `C#CCOc1ccc(NC(=O)c2ccccc2)c(-c2cc(=O)c3ccccc3o2)c1` [Compound 11, N-(2-(4-Oxo-4H-chromen-2-yl)-4-(prop-2-ynyloxy)phenyl) benzamide], the figure is 154 to 156 °C; as for `O=C(Nc1ccc(O)cc1-c1cc(=O)c2ccccc2o1)c1ccccc1` [Compound 12, N-(4-Hydroxy-2-(4-oxo-4H-chromen-2-yl)phenyl)benzamide], > 200 °C. Regarding `Nc1ccc(O)cc1-c1cc(=O)c2ccc(F)cc2o1` [Compound 13, 2-(2-Amino-5-hydroxyphenyl)-7-fluoro-4H-chromen-4-one], the melting point is 200 to 202 °C. Moreover, the inhibition at 100 µM on human 12R-LOX enzyme (setting [2]) is 21 ± 8.4%. Taken in the same sequence, the figures for `Nc1ccc(O)cc1-c1cc(=O)c2cc(Br)ccc2o1` [Compound 14, 2-(2-Amino-5-hydroxyphenyl)-6-bromo-4H-chromen-4-one] were > 200 °C and 6.95 ± 1.6%.

In the case of `O=c1cc(-c2cc(O)ccc2NS(=O)(=O)c2ccc([N+](=O)[O-])cc2)oc2ccccc12` [Compound 15, N-(4-Hydroxy-2-(4-oxo-4H-chromen-2-yl)phenyl)-4-nitrobenzenesulfonamide], the melting point was > 200 °C. In addition, on human 12R-LOX enzyme (setting [2]), the inhibition at 100 µM was found to be 6.33 ± 5.9%.

As to `Nc1ccc(O)cc1-c1cc(=O)c2cc(O)ccc2o1` [Compound 16, 2-(2-Amino-5-hydroxyphenyl)-6-hydroxy-4H-chromen-4-one], the melting point fell in the range of 130 to 132 °C. In addition, the inhibition at 100 µM at human 12R-LOX enzyme (setting [2]) is 38.3 ± 3.8%. On the same counts, the results for `O=c1cc(-c2cc(O)ccc2NS(=O)(=O)c2ccc(C(F)(F)F)cc2)oc2ccccc12` [Compound 17, N-(4-Hydroxy-2-(4-oxo-4H-chromen-2-yl)phenyl)-4-(trifluoromethyl)benzenesulfonamide] are 160 to 162 °C and 30 ± 5%.

Consider `Nc1ccc(O)cc1-c1cc(=O)c2ccc(Br)cc2o1` [Compound 18, 2-(2-Amino-5-hydroxyphenyl)-7-bromo-4H-chromen-4-one], for which the melting point is > 200 °C. Moreover, the IC50 on human 12R-LOX enzyme (setting [1]) was found to be 98.1 µM. On human 12R-LOX enzyme (setting [2]), the inhibition at 100 µM was 53.5 ± 4.2%.

The values are drawn from patent US20220356162A1, “Heterocyclic Compounds as Lipoxygenase Inhibitors” (Dr. Reddy's Institute of Life Sciences, priority 2019, published 2022).
